# What was measured:
# RORγ-LBD = target: T1, RORγ-LBD (Homo sapiens, UniProt P51449); assay: RORγ-Ligand Binding Domain (LBD) TR-FRET Assay; format: biochemical; details: RORγ-LBD TR-FRET
# T1 construct: made in house; host or cells: SF9 cells (baculovirus); used as diluted lysate
# T1 sequence (P51449 269-508 limits assumed): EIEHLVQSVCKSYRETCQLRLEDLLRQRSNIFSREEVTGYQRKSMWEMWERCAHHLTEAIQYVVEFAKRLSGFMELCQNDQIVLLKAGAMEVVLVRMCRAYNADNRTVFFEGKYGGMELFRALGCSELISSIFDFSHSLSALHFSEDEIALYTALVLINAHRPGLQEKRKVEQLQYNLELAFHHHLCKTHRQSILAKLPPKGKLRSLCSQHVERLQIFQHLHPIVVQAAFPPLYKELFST
# Outline: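 Lysate from SF9 cells expressing His-RORγ-LBD is diluted to about 3 nM final in 50 mM Tris pH 7.0 assay buffer. A biotin-tagged SRC1 LXXLL peptide goes in at 200 nM final, plus ursolic acid at 2 μM final. Test compounds carry 1% DMSO final; signal read by TR-FRET.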
# Gal4-RORγ-LBD = target: T2, Gal4-RORγ-LBD (Homo sapiens, UniProt P51449); assay: Gal4-RORγ Luciferase Reporter Assay in HEK-293T Cells; format: cell-based; details: HEK-293 cells, luciferase reporter, with ursolic acid
# T2 construct: expressed in transfected cells
# T2 sequence (P51449 269-508 limits assumed): T1 sequence (P51449 269-508 limits assumed)
# Outline: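 Max Response was taken as the upper plateau of a 4-parameter logistic fit of luciferase signal, normalized to 100 for wells without ursolic acid or compound. Transiently Gal4-RORγ-LBD/Gal4-luc transfected HEK-293 cells carrying […] ursolic acid were incubated with test compounds (0.2% DMSO) overnight at 37 °C and read with One-Glo.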
SMILES,EC50 (RORγ-LBD) [µM],EC50 (Gal4-RORγ-LBD) [µM]
"O=C(O)CC[C@H]1CN(S(=O)(=O)c2cn(C3CC3)nc2OCCO)c2cc(/C=C/c3c(Cl)cccc3C(F)(F)F)ccc2O1 [Example 89EG, (S,E)-3-(6-(2-chloro-6-(trifluoromethyl)styryl)-4-((1-cyclopropyl-3-(2-hydroxyethoxy)-1H-pyrazol-4-yl)sulfonyl)-3,4-dihydro-2H-benzo[b][1,4]oxazin-2-yl)propanoic acid]",< 0.5,0.5 to 5
"CCOc1nn(CC)cc1S(=O)(=O)N1C[C@H](CCC(=O)O)Oc2ccc(/C=C/c3c(Cl)cccc3C(F)F)cc21 [Example 89EH, (S,E)-3-(6-(2-chloro-6-(difluoromethyl)styryl)-4-((3-ethoxy-1-ethyl-1H-pyrazol-4-yl)sulfonyl)-3,4-dihydro-2H-benzo[b][1,4]oxazin-2-yl)propanoic acid]",< 0.5,< 0.5
"CCOc1nn(CC)cc1S(=O)(=O)N1C[C@H](CCC(=O)OC)Oc2ccc(/C=C/c3c(Cl)cccc3C(F)F)cc21 [Example 89EI, methyl (S,E)-3-(6-(2-chloro-6-(difluoromethyl)styryl)-4-((3-ethoxy-1-ethyl-1H-pyrazol-4-yl)sulfonyl)-3,4-dihydro-2H-benzo[b][1,4]oxazin-2-yl)propanoate]",< 0.5,< 0.5
"CCOc1ncc(C(F)(F)F)cc1S(=O)(=O)N1C[C@H](CCC(=O)O)Oc2ccc(/C=C/c3c(Cl)cccc3C(F)F)cc21 [Example 89EJ, (S,E)-3-(6-(2-chloro-6-(difluoromethyl)styryl)-4-((2-ethoxy-5-(trifluoromethyl)-pyridin-3-yl)sulfonyl)-3,4-dihydro-2H-benzo[b][1,4]-oxazin-2-yl)propanoic acid]",< 0.5,< 0.5

# Results, then the compound that gave them:
EC50 (RORγ-LBD) [µM],EC50 (Gal4-RORγ-LBD) [µM],SMILES
< 0.5,< 0.5,"COC(=O)CC[C@H]1CN(S(=O)(=O)c2cc(C(F)(F)F)cnc2OCCO)c2cc(/C=C/c3c(F)cccc3Cl)ccc2O1 [Example 89EB, methyl (S,E)-3-(6-(2-chloro-6-fluorostyryl)-4-((2-(2-hydroxyethoxy)-5-(trifluoromethyl)-pyridin-3-yl)sulfonyl)-3,4-dihydro-2H-benzo[b][1,4]oxazin-2-yl)propanoate]"
< 0.5,0.5 to 5,"O=C(O)CC[C@H]1CN(S(=O)(=O)c2cc(C(F)(F)F)cnc2OCCO)c2cc(/C=C/c3c(F)cccc3Cl)ccc2O1 [Example 89EC, (S,E)-3-(6-(2-chloro-6-fluorostyryl)-4-((2-(2-hydroxyethoxy)-5-(trifluoromethyl)-pyridin-3-yl)sulfonyl)-3,4-dihydro-2H-benzo[b][1,4]oxazin-2-yl)propanoic acid]"
< 0.5,< 0.5,"CC(C)n1cc(S(=O)(=O)N2C[C@H](CCC(=O)O)Oc3ccc(/C=C/c4c(Cl)cccc4C(F)(F)F)cc32)c(OCCO)n1 [Example 89ED, (S,E)-3-(6-(2-chloro-6-(trifluoromethyl)styryl)-4-((3-(2-hydroxyethoxy)-1-isopropyl-1H-pyrazol-4-yl)sulfonyl)-3,4-dihydro-2H-benzo[b][1,4]oxazin-2-yl)propanoic acid]"
< 0.5,0.5 to 5,"CCOc1nn(CC)cc1S(=O)(=O)N1C[C@H](CCC(=O)O)Oc2ccc(/C=C/c3ncccc3Cl)cc21 [Example 89EE, (S,E)-3-(6-(2-(3-chloropyridin-2-yl)vinyl)-4-((3-ethoxy-1-ethyl-1H-pyrazol-4-yl)sulfonyl)-3,4-dihydro-2H-benzo[b][1,4]oxazin-2-yl)propanoic acid]"
< 0.5,< 0.5,"O=C(O)CC[C@H]1CN(S(=O)(=O)c2cn(CC(F)F)nc2OCCO)c2cc(/C=C/c3c(Cl)cccc3C(F)(F)F)ccc2O1 [Example 89EF, (S,E)-3-(6-(2-chloro-6-(trifluoromethyl)styryl)-4-((1-(2,2-difluoroethyl)-3-(2-hydroxyethoxy)-1H-pyrazol-4-yl)sulfonyl)-3,4-dihydro-2H-benzo[b][1,4]oxazin-2-yl)propanoic acid]"
